From patent US6348483B1, “Use of derivatives of methylene-bis-oxazolidine and compositions obtained thereby” (Air Liquide Sante (International), priority 1998, dated 2002)

System: Chlorella fusca (CF)
Assay: Algistatic finish (SM 023) of pure acrylate house paint
Format: cell-based
Conditions: without and with stress due to leaching; active compound concentration of 0.2% by weight based on house paint and test substance
Method: In separate batches, the test concentrations of the active compounds/products were incorporated into the house paint, and the fungicidal and/or algistatic finish was determined using the stated test methods.
Incorporation and testing were carried out according to the methods SM 022 and SM 023 below.
This laboratory method was employed for determining the resistance of house coatings to colonization by algae. For this method, house coatings on standardized paper are used as test substrate and Chlorella fusca is used as test alga. It is furthermore possible to use pure cultures of other algae species of practical relevance.
The experiments were carried out in Petri dishes on agar nutrient media.
50 g of the material to be finished were, in separate batches, mixed with various concentrations of the algicide to be examined and homogenized for 3-5 min using a basket stirrer.
Paper carrier materials having the dimensions 90×270 mm (Schleicher & Schüll No. 2589 B/X 24078) were coated with the test material. The paint and/or render samples were coated to a wet-layer thickness of 250 μm by knife coating. […] In the case of renders, the layer thickness depends, as in practice, on the particle size. The coated carrier materials, hereinbelow referred to as test bodies, were subsequently dried in a horizontal position for five days.
[…] The cross section of the container for the watering in the direction of flow was 1000±500 cm^2.
From the pretreated test bodies, three sample bodies having a diameter of 5 cm were punched out and sterilized in a Co^60 source using at least 10 kGy.
Aseptically, the samples were placed onto the algae nutrient media, and the centre of the sample was inoculated with 5 ml of each algae suspension.
The mixture of the algae suspensions was spread on the surface using a Drigalski spatula or an offset sterile glass rod.
During the growth phase at 22±2° C., the coated samples in the Petri dishes were irradiated with light of an intensity of about 1000 Lux (customary fluorescent tubes, type D 67 daylight). A cycle of in each case 12 hours of irradiation and 12 hours of storage in the dark was used.
The colonization of the samples by algae was examined and evaluated after two weeks. Evaluation was carried out visually. The evaluation of the samples was based on the following evaluation scale:
No growth of algae on the test bodies
Formation of an inhibitory zone or growth of algae on the nutrient medium up to the edge of the test bodies
Visible colonization of the test body by algae

## COC(=O)Nc1nc2ccccc2[nH]1 [carbendazim, Methyl 1H-benzimidazol-2-ylcarbamate]
  Algicidal action (in words): no algicidal action
